The target of this assay is T1, Isoform 2 of Nuclear receptor ROR-gamma (RORgT) (Homo sapiens, UniProt P51449).
T1 sequence (P51449 whole entry): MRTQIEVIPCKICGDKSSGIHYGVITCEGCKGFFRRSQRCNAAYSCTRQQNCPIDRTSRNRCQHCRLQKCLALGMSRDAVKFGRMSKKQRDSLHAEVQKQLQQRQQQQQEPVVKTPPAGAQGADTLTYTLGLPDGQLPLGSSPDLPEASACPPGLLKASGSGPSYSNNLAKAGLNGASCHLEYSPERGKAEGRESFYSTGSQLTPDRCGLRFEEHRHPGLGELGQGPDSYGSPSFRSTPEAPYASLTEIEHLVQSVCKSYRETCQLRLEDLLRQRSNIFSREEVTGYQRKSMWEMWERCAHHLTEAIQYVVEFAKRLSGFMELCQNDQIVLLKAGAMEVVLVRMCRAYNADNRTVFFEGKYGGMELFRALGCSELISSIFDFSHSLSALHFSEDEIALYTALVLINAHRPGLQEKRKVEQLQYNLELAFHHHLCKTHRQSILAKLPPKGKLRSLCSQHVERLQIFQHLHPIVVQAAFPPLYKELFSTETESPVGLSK
Nature of the assay: RORgamma Gal4 Reporter Gene Assay (FRET). The protocol: Determination of a ligand mediated Gal4 promoter driven transactivation to quantify ligand binding to RORγ was performed as follows: DNA encoding three different RORγ protein fragments was cloned into vector pCMV-BD (Stratagene). Expression was under control of a CMV promoter and as fusion to the DNA-binding domain of the yeast protein GAL4. Other vectors used were pFR-Luc (Stratagene) as regulated reporter plasmid. pFR-Luc contains a synthetic promoter with five tandem repeats of the yeast GAL4 binding sites that control expression of the Photinus pyralis (American firefly) luciferase gene. In order to improve experimental accuracy the plasmid pRL-CMV was cotransfected. pRL-CMV contains the constitutive CMV promoter, controlling the expression of the Renilla reniformis luciferase. […] The medium is supplemented with 10% fetal bovine serum, 0.1 mM nonessential amino acids, 1 mM sodium pyruvate, 1% Glutamax and 100 units Penicilin/[…] per mL at 37° C. in 5% CO2.For the assay, […] cells were plated per well in 96 well plates in 100 μL per well, incubated over night at 37° C. in 5% CO2. […] About 4 h after addition of the transfection solution, fresh Minimal Essential Medium (MEM, same composition as used for plating cells, but without serum) was added.
Background: Reporter assays use an easily measured gene product as a stand-in for the process of interest.
Usually IC50 stands for the concentration that gives 50% inhibition. High values mean lower potency, low ones higher potency. `CC(C)(O)CNC(=O)c1nc(CC2CCC2)c(-c2ccc(S(=O)(=O)NC(C)(C)C)c(Cl)c2OC(F)F)s1` [US10301272, Example 21/1] returned a half-inhibitory concentration (IC50) of 251 nM.

For the compound `CC(C)(C)NS(=O)(=O)c1ccc(-c2sc(C(=O)NC3CCOCC3)nc2CC2CCCCC2)cc1C(F)(F)F` [US10301272, Example 9], 63.1 nM corresponded to half-maximal inhibition (IC50). With `CCOC(=O)c1nc(Cc2ccccc2)c(-c2ccc(S(=O)(=O)NC(C)(C)C)c3ccccc23)s1` [US10301272, Example 202] the figure was 63.1 nM.

The record behind these values is BindingDB's records for patent US10301272 (Phenex Pharmaceuticals, 2019).
